As a reminder, the IC50 is the point on the concentration scale where inhibition reaches its midpoint.

The target of one experiment is T1, human MGL from HeLa cells (Homo sapiens, UniProt Q99685).
T1 construct: combining endogenously expressed MGL from HeLa cells with test compounds; endogenous in cells; host or cells: HeLa cells / cell homogenates
T1 sequence (Q99685 1-303): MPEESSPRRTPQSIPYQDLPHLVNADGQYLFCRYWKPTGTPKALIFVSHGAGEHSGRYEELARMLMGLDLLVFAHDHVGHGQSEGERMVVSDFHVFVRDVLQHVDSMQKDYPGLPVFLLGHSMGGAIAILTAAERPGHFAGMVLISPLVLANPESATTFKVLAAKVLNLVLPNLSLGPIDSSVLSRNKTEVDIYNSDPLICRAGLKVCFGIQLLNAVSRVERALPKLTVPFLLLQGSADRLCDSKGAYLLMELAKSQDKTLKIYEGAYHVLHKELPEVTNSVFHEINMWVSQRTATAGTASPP
The experiment in a line: In vitro MGL activity assay: [glycerol-1,3-3H]-oleyl glycerol cleavage by MGL from HeLa cells. The note with it: 300 nM [Glycerol-1,3-3H]-oleyl glycerol, one hour. Type of experiment: biochemical. From the text:
MGL is the predominant hydrolase in HeLa cells/cell homogenates.
The compound `COc1ccnc(C(=O)N2CCc3c(nn(C)c3-c3cc(F)cc(C(F)F)c3)[C@@H]2C)c1Cl` [Example 608, (3-Chloro-4-methoxy-2-pyridyl)-[(7S)-3-[3-(difluoromethyl)-5-fluoro-phenyl]-2,7-dimethyl-5,7-dihydro-4H-pyrazolo[3,4-c]pyridin-6-yl]methanone] gave an IC50 of 21.7 nM.

In the case of `Cc1ccc2c(C(=O)N3CCc4c(nn(C)c4-c4cc(F)c(F)c(F)c4)[C@@H]3C)nccc2n1` [Example 487, [(7S)-2,7-Dimethyl-3-(3,4,5-trifluorophenyl)-5,7-dihydro-4H-pyrazolo[3,4-c]pyridin-6-yl]-(2-methyl-1,6-naphthyridin-5-yl)methanone], the IC50 is 35.3 nM.

Compound `Cc1cnn2cccc(C(=O)N3CCc4c(nn(C)c4-c4cc(F)c(F)c(F)c4)[C@@H]3C)c12` [Example 380, [(7S)-2,7-Dimethyl-3-(3,4,5-trifluorophenyl)-5,7-dihydro-4H-pyrazolo[3,4-c]pyridin-6-yl]-(3-methylpyrazolo[1,5-a]pyridin-4-yl)methanone] had an IC50 of 44 nM.

`C[C@H]1c2nn(C)c(-c3cc(F)c(F)c(F)c3)c2CCN1C(=O)c1n[nH]c2cccc(F)c12` [Example 362, [(7S)-2,7-Dimethyl-3-(3,4,5-trifluorophenyl)-5,7-dihydro-4H-pyrazolo[3,4-c]pyridin-6-yl]-(4-fluoro-1H-indazol-3-yl)methanone] returned an IC50 of 2.74 nM.

`C[C@H]1c2nn(C)c(-c3ccc(C(F)(F)F)cc3)c2CCN1C(=O)c1ccc2ncccc2c1` [Example 494, [(7S)-2,7-Dimethyl-3-[4-(trifluoromethyl)phenyl]-5,7-dihydro-4H-pyrazolo[3,4-c]pyridin-6-yl]-(6-quinolyl)methanone]: the IC50 came out at 54.9 nM.

In turn, `C[C@H]1c2nn(C)c(-c3cc(F)c(F)c(F)c3)c2CCN1C(=O)c1nccc2cnn(C)c12` [Example 433, [(7S)-2,7-Dimethyl-3-(3,4,5-trifluorophenyl)-5,7-dihydro-4H-pyrazolo[3,4-c]pyridin-6-yl]-(1-methylpyrazolo[3,4-c]pyridin-7-yl)methanone] registered a half-inhibitory concentration (IC50) of 104 nM.

For the compound `C[C@H]1c2nn(C)c(-c3ccc(C(F)(F)F)nc3)c2CCN1C(=O)c1ccc2ncccc2c1` [Example 522, [(7S)-2,7-Dimethyl-3-[6-(trifluoromethyl)-3-pyridyl]-5,7-dihydro-4H-pyrazolo[3,4-c]pyridin-6-yl]-(6-quinolyl)methanone], the IC50 came to 267 nM.

`COc1cc(F)cc(-c2c3c(nn2C)[C@H](C)N(C(=O)c2ccc4c(c2)OCCC4)CC3)c1` [Example 611, Chroman-7-yl-[(7S)-3-(3-fluoro-5-methoxy-phenyl)-2,7-dimethyl-5,7-dihydro-4H-pyrazolo[3,4-c]pyridin-6-yl]methanone] showed an IC50 of 25.6 nM.

`C[C@H]1c2nn(C)c(-c3cc(F)c(F)c(F)c3)c2CCN1C(=O)c1ccc(F)c2[nH]ccc12` [Example 354, [(7S)-2,7-Dimethyl-3-(3,4,5-trifluorophenyl)-5,7-dihydro-4H-pyrazolo[3,4-c]pyridin-6-yl]-(7-fluoro-1H-indol-4-yl)methanone] registered an IC50 of 2.23 nM.

With `C[C@H]1c2nn(C)c(-c3cc(F)c(F)c(F)c3)c2CCN1C(=O)c1nnn2ccccc12` [Example 441, [(7S)-2,7-Dimethyl-3-(3,4,5-trifluorophenyl)-5,7-dihydro-4H-pyrazolo[3,4-c]pyridin-6-yl]-(triazolo[1,5-a]pyridin-3-yl)methanone], inhibition was half-maximal at 24.1 nM (IC50).

Still in this experiment, the particulars now being: 300 nM [Glycerol-1,3-3H]-oleyl glycerol, one hour incubation.
On to `Cn1nc2c(c1-c1ccccc1)CCN(C(=O)c1cccc3ccsc13)C2` [Example 37, Benzo[b]thiophen-7-yl(2-methyl-3-phenyl-2,4,5,7-tetrahydro-6H-pyrazolo[3,4-c]pyridin-6-yl)methanone], for which the IC50 came to 47.8 nM.

In the case of `CC(C)Oc1ccc(C(=O)N2CCc3c(nn(C)c3-c3cccc(Cl)c3)[C@@H]2C)cn1` [Example 121, (S)-(3-(3-Chlorophenyl)-2,7-dimethyl-2,4,5,7-tetrahydro-6H-pyrazolo[3,4-c]pyridin-6-yl)(6-isopropoxypyridin-3-yl)methanone], the IC50 stood at 330 nM.

In the case of `Cn1nc2c(c1-c1cc(F)cc(F)c1)CCN(C(=O)c1ccc3ncccc3c1)C2` [Example 101, (3-(3,5-Difluorophenyl)-2-methyl-2,4,5,7-tetrahydro-6H-pyrazolo[3,4-c]pyridin-6-yl)(quinolin-6-yl)methanone], the half-maximal inhibitory concentration (IC50) amounted to 52.4 nM.

In turn, `Cn1nc2c(c1-c1cc3ccccc3n1C)CCN(C(=O)c1ccc3ncccc3c1)C2` [Example 105, (2-Methyl-3-(1-methyl-1H-indol-2-yl)-2,4,5,7-tetrahydro-6H-pyrazolo[3,4-c]pyridin-6-yl)(quinolin-6-yl)methanone] displayed an IC50 of 406 nM.

For the compound `COc1ccccc1C(=O)N1CCc2c(nn(C)c2-c2cc(F)c(F)c(F)c2)[C@@H]1C` [Example 259, [(7S)-2,7-Dimethyl-3-(3,4,5-trifluorophenyl)-5,7-dihydro-4H-pyrazolo[3,4-c]pyridin-6-yl]-(2-methoxyphenyl)methanone], it took 12.6 nM to reach half-maximal inhibition (IC50).

`C[C@@H]1c2nn(C)c(-c3ccccc3)c2CCN1C(=O)c1ccc2ncccc2c1` (single isomer, unassigned) [Example 111] gave an IC50 of 8240 nM.

`[2H]C([2H])([2H])n1nc2c(c1-c1cc(F)cc(F)c1)CCN(C(=O)c1ccc3ncccc3c1)C2C` (centres unmarked) [Example 157, (3-(3,5-Difluorophenyl)-7-methyl-2-(methyl-d3)-2,4,5,7-tetrahydro-6H-pyrazolo[3,4-c]pyridin-6-yl)(quinolin-6-yl)methanone] came in with an IC50 of 13.8 nM.

As for `Cn1nc2c(c1-c1ccccc1)CCN(C(=O)c1ccc3[nH]ccc3c1)C2` [Example 43, (1H-Indol-5-yl)(2-methyl-3-phenyl-2,4,5,7-tetrahydro-6H-pyrazolo[3,4-c]pyridin-6-yl)methanone], the concentration for half-maximal inhibition (IC50) amounted to 64.7 nM.

As for `C[C@H]1c2nn(C(F)F)c(-c3cc(F)c(F)c(F)c3)c2CCN1C(=O)c1ccc2ncccc2c1` [Example 232, (S)-(2-(Difluoromethyl)-7-methyl-3-(3,4,5-trifluorophenyl)-2,4,5,7-tetrahydro-6H-pyrazolo[3,4-c]pyridin-6-yl)(quinolin-6-yl)methanone], half-maximal inhibition (IC50) was put at 5.57 nM.

As for `C[C@H]1c2nn(C)c(-c3cc(F)cc(F)c3)c2CCN1C(=O)c1ccccc1OCCF` [Example 137, [(7S)-3-(3,5-Difluorophenyl)-2,7-dimethyl-5,7-dihydro-4H-pyrazolo[3,4-c]pyridin-6-yl]-[2-(2-fluoroethoxy)phenyl]methanone], the IC50 stood at 240 nM.

In the case of `C[C@H]1c2nn(C)c(-c3cccc(Cl)c3)c2CCN1C(=O)c1cc(Br)c2nccnc2c1` [Example 135, (S)-(8-Bromoquinoxalin-6-yl)(3-(3-chlorophenyl)-2,7-dimethyl-2,4,5,7-tetrahydro-6H-pyrazolo[3,4-c]pyridin-6-yl)methanone], the concentration for half-maximal inhibition (IC50) amounted to 10.6 nM.

`CC1c2nn(-c3ccccc3)c(-c3ccccc3)c2CCN1C(=O)c1ccc2ncccc2c1` (centres unmarked) [Example 113, (7-Methyl-2,3-diphenyl-2,4,5,7-tetrahydro-6H-pyrazolo[3,4-c]pyridin-6-yl)(quinolin-6-yl)methanone] gave an IC50 of 236 nM.

The compound `COc1ccc(C(=O)N2CCc3c(nn(C)c3-c3ccccc3)C2)cc1OC` [Example 9, (3,4-Dimethoxyphenyl)(2-methyl-3-phenyl-2,4,5,7-tetrahydro-6H-pyrazolo[3,4-c]pyridin-6-yl)methanone] returned an IC50 of 441 nM.

These data come from patent US11820766B2, “Monoacylglycerol lipase modulators” (Janssen Pharmaceutica NV, priority 2018, dated 2023).
